# Source: PMC11921344, “Antimicrobial peptide DiPGLa-H exhibits the most outstanding anti-infective activity among the PGLa variants based on a systematic comparison” (Applied and Environmental Microbiology, 2025)
# Where no end group is shown, it is not given here.
# Legend:
# [1] = tested on: Gram-negative bacteria; assay: Geometric mean MIC and therapeutic index, Gram-negative; type: cell-based; settings: geometric mean of the peptide MICs against Gram-negative strains
# Description: The antibacterial activity was evaluated using a standard MIC and MBC assay according to the National Committee for Clinical Laboratory Standards (NCCLS). MIC, MBC assay, and time-kill curves for the optimal peptide are provided in the Supplementary Materials.
# Antimicrobial Activity Assays. The antibacterial activity of the peptides was determined using a method designed from the National Committee for Clinical Laboratory Standards (NCCLS) in the United States. All the strains used in the experiment are preserved in the laboratory. Briefly, log phase bacterial cells were diluted in MHB to a final concentration of 0.5-1x10^5 CFU/mL. Subsequently, 50μL of different concentrations of polypeptides were incubated with 50 μL of bacterial solution in sterile 96-well plates. In the minimum inhibitory concentration (MIC) assay, the plate was incubated at 37°C for 24 h, and the minimum inhibitory concentration (MIC) was determined by the absorbance at 492 nm of the microplate reader, and the minimum inhibitory concentration (MIC) inhibited 95% of bacteria grow. Determination of minimum bactericidal concentration: the plate was incubated at 37°C for 4 hours, 50 μL of the mixture was taken out of each well, diluted with an appropriate amount of PBS, smeared on the agar plate, and cultured overnight. Colonies were counted and the initial CFU/well was retrospectively calculated the following day. The lowest concentration of peptide that kills 99.9% of bacterial cells is the minimum bactericidal concentration (µM), Each test was replicated at least 3 times.
# [2] = tested on: P. aeruginosa ATCC27853 biofilm; assay: Anti-biofilm assay (crystal violet); type: cell-based, Pseudomonas aeruginosa
# Description: The anti-biofilm activity of DiPGLa-H was evaluated using a crystal violet staining method. Briefly, 100 µL of bacterial suspension at 1 × 10^6 CFU/mL was incubated with DiPGLa-H (0–64 µM) for 48 h. The biofilm formed was stained with 1% crystal violet, and the absorbance was measured at 595 nm. The biofilm formation and mature biofilm removal assays were conducted. For biofilm formation, a bacterial suspension was incubated with DiPGLa-H, and biofilm content was quantified. To assess mature biofilm removal, pre-formed biofilms were treated with DiPGLa-H for 24 h, followed by quantification. Detailed Protocol in Supplementary Materials.
# To test the ability of DiPGLa-H to […] on the test bacteria, a single colony was inoculated in MHB medium and incubated overnight at 37 °C and 180 r/min, and 1% of the bacterial suspension was taken and continued to be amplified and incubated for 2 h. […] The biofilm content was analyzed by measuring the absorbance value at 595 nm, and anhydrous ethanol was used as a blank control. […]
# [3] = tested on: S. aureus Mu50; assay: ROS generation (DCFH-DA); type: cell-based, Staphylococcus aureus MRSA; settings: 8 µM DiPGLa-H, 1 h 37°C, DCFH-DA 10 µM
# Description: 2′,7′-Dichlorofluorescin diacetate (DCFH-DA) was used to determine the intracellular production of ROS as previously described. S. aureus Mu50 and E. coli K88 cells were diluted until OD600 = 0.4 and incubated in different concentrations of peptide at 37°C for 1 h. Next, the mixed solution was incubated with 10 µM DCFH-DA at 37°C for 1 h. The fluorescence (excitation wavelength = 488 nm, emission wavelength = 525 nm) was monitored with an Infinite 200 pro fluorescence spectrophotometer (Tecan, China). Each test was measured in triplicate and tested twice.
substance,measurement,setting,value
KIAKVALKALKIAKVALKAL-NH2 (C-terminus assumed) [DiPGLa-H],GMMIC Gram-negative,[1],2.82 µM
same,inhibition of biofilm formation,"[2]; 1×10^6 CFU/mL, DiPGLa-H 0-64 µM, 48 h, crystal violet, 595 nm",inhibition at higher concentrations
same,biofilm elimination capacity,"[2]; pre-formed biofilm treated with DiPGLa-H for 24 h, similar concentrations (above 16 µM)",less pronounced
same,elevation of ROS production vs untreated,[3],4.6 fold
